pKi: −log10 of the molar value.
What was measured:
[1] = Inhibition of Candida glabrata beta-carbonic anhydrase preincubated for 15 mins by stopped-flow CO2 hydration assay; parameters: species or system Nakaseomyces glabratus
[2] = Inhibition of Drosophila melanogaster beta-carbonic anhydrase preincubated for 15 mins by stopped-flow CO2 hydration assay
[3] = Inhibition of Malassezia globosa beta-carbonic anhydrase preincubated for 15 mins by stopped-flow CO2 hydration assay
[4] = Inhibition of Flaveria bidentis beta-carbonic anhydrase preincubated for 15 mins by stopped-flow CO2 hydration assay
[5] = Inhibition of Mycobacterium tuberculosis beta-carbonic anhydrase Rv3588 preincubated for 15 mins by stopped-flow CO2 hydration assay
[6] = Inhibition of Cryptococcus neoformans beta-carbonic anhydrase preincubated for 15 mins by stopped-flow CO2 hydration assay
[7] = target: T1, Beta-carbonic anhydrase 1 (Mycobacterium tuberculosis, UniProt P9WPJ7); test: Inhibition of Mycobacterium tuberculosis beta-carbonic anhydrase Rv1284 preincubated for 15 mins by stopped-flow CO2 hydration assay
T1 sequence (P9WPJ7 whole entry): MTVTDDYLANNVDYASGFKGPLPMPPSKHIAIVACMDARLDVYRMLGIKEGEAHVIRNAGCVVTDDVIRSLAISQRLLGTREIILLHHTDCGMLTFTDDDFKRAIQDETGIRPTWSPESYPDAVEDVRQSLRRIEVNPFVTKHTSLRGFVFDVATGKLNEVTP

Carbonic anhydrase 2 = Carbonic anhydrase 2 (Homo sapiens, UniProt P00918)
[8] = Inhibition of Candida albicans beta-carbonic anhydrase preincubated for 15 mins by stopped-flow CO2 hydration assay
[9] = Inhibition of Mycobacterium tuberculosis beta-carbonic anhydrase Rv3273 preincubated for 15 mins by stopped-flow CO2 hydration assay
Carbonic anhydrase 1 = Carbonic anhydrase 1 (Homo sapiens, UniProt P00915)
Chain of Carbonic anhydrase 1 (P00915 whole entry): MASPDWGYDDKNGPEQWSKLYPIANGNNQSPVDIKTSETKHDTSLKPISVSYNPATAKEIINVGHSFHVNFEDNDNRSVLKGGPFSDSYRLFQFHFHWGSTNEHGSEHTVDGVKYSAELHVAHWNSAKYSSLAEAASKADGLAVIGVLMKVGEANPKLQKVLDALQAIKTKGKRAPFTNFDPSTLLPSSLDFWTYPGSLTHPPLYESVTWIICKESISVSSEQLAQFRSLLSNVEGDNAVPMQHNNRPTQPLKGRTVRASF

Row | Compound | pKi [1] | pKi [2] | pKi [3] | pKi [4] | pKi [5] | pKi [6] | pKi [7] | pKi (Carbonic anhydrase 2) | pKi [8] | pKi [9] | pKi (Carbonic anhydrase 1)
1 | CC(=O)Nc1nnc(S(N)(=O)=O)s1 [ACETAZOLAMIDE] | 7.96 | 7.31 | 4.13 | […] | 8.00 | 8.00 |  |  |  |  | 
2 | CC(C)C[C@H](NC(=O)[C@H](Cc1ccccc1)NC(=O)c1cnccn1)B(O)O [BORTEZOMIB] | 5.24 | 4.95 | 5.49 | 5.07 | 5.38 | 5.33 | 5.14 | 5.94 | 5.95 | 5.19 | 5.89
3 | OB(O)c1ccccc1 [PHENYLBORONIC ACID] | 4.00 | < 4.00 | 4.05 | 5.10 | 4.32 | < 4.00 | 4.24 | < 4.00 | < 4.00 | 4.17 | < 4.00

— ChEMBL document CHEMBL3826908, “Bortezomib inhibits bacterial and fungal β-carbonic anhydrases” (Bioorg Med Chem, 2016)
